US6310093A (priority 1998, dated 2001)
Where “and” joins values, the source holds several entries; their conditions need not be identical. Identical values can stand only once. Like-named read-outs stand apart in the source and are kept apart here.

Key:
[1] = tested on: mixed neuronal-astrocyte cultures; test: cells; conditions: Mus musculus
[2] = tested on: mixed neuronal-astrocyte cultures

NC(=O)CC[C@H](N)C(=O)O [Gln, glutamine]
cytotoxicity at 2000 µM ([1]; 7 h, read-out: neuronal LDH release): 48.5 ± 14.4%
cytotoxicity at 2000 µM ([1]; 24 h, read-out: % cell death (LDH)): 42.2%
cytotoxicity at 2000 µM ([1]; read-out: neuronal death in hypoxia with added glutamine): ~40%
Glu [2]: 3.1 ± 0.28 and 3.88 ± 0.14
medium glutamate [2]: 2.3 ± 1.1 μM Glu
